Experimental data published in patent US9012152B2, “Anti-bacterial peptides and methods of treating diseases using same” (Yissum Research Development Company of the Hebrew …, priority 2007, dated 2015).

Experiments:
K-38 = experiment: EDF response of recipient culture, strain K-38; format: cell-based, E. coli; details: rifampicin 10 μg/ml
Method: (§1) Comparison of EDF response in MC4100relA^+, K38, W3110, and MG1655 E. coli strains: Cultures of MC4100relA^+, K38, W3110, and MG1655 E. coli were grown as described in Example 1. When the cultures reached a density of 2.5×10^8 cells/ml, duplicate samples were removed and diluted to 3×10^4 cells/ml in pre-heated supernatant of a dense culture of MC4100relA^+(WT) which had been titrated to have an EDF concentration of either 1 unit/ml or 10 units/ml (quantified as described in Example 3). After incubation without shaking at 37° C. for 10 minutes, rifampicin (10 μg/ml) was added, and the culture was incubated without shaking at 37° C. for an additional 10 minutes. Cells were centrifuged in 14,000 rpm for 5 minutes and washed in pre-heated saline. Then, the cells were diluted, plated on LB plates, and incubated at 37° C. for 12 hours. Cell survival was calculated by comparing the colony-forming units (CFUs) of treated cells to those of untreated cells.

MG1655 = experiment: EDF response of recipient culture, strain MG1655; format: cell-based, E. coli; details: rifampicin 10 μg/ml
Method: as §1

proteinase K = proteinase K (Parengyodontium album, UniProt P06873); experiment: Effect of proteinase K on EDF; details: supernatant with proteinase K-agarose beads, 37° C., 2 hours
Method: Effect of proteinase K on EDF: Supernatants from the “donor” cultures described above were incubated with shaking at 37° C. for 2 hours as such or with agarose bease or with proteinase K-agarose beads. The beads were then removed by centrifugation at 14,000 rpm for 10 minutes. Their ability to restore mazEF-mediated cell death to a diluted culture was determined as described above.

W3110 = experiment: EDF response of recipient culture, strain W3110; format: cell-based, E. coli; details: rifampicin 10 μg/ml
Method: as §1

E. coli MC4100relA^+ = experiment: E. coli mazEF-mediated cell death in the presence of synthesized wild type and mutated EDF; format: cell-based; details: 1 μg/ml of peptide; rifampicin 10 μg/ml, 10 minutes; diluted culture 3×10^4
Method: E. coli mazEF-mediated cell death in the presence of synthesized wild type (WT) and mutated EDF. E. coli MC4100relA^+t(WT) and MC4100relA^+ΔmazEF (ΔmazEF) were grown for 12 hours in M9 medium with shaking (160 rpm). Then, cells were diluted 1:100 in M9 medium and were grown with shaking (160 rpm) at 37° C. to a mid-logarithmic phase (OD600=0.6). Duplicate samples were removed from the cultures at a density of 2.5×10^8 (Dense), diluted in pre-heated M9 medium to the density of 3×10^4 (M9) or diluted in pre-heated M9 applied with 1 μg/ml of one of the synthesized EDFs (SEQ ID NOs: 1-6). The samples were incubated for 10 minutes at 37° C. without shaking. Then rifampicin (10 μg/ml) was added and the cells were incubated for 10 minutes without shaking. The cells were centrifuged in 14000 rpm for 5 minutes and washed in pre-heated saline. Then, the cells were diluted, plated on LB plates and incubated at 37° C. for 12 hours. Cell killing was calculated by comparing the number of the colony-forming ability of cells treated by stressful conditions to those of the cells that were not exposed to the treatment.

[1] = tested on: E. Coli MC4100relA^+ cells, K38 cells and W3110; experiment: Chemically synthesized EDF restores mazEF mediated cell death to a dilute culture; format: cell-based; details: synthetic EDF 2.5 ng/ml
Method: Chemically synthesized EDF restores mazEF mediated cell death to a dilute culture: E. Coli MC4100relA^+ cells, K38 cells and W3110 and ΔmazEF cells were grown as described in Example 1 herein above. At a density of 2.5×10^8 cells/ml, samples were either not diluted (dense) or diluted to 3×10^4 cells/ml in pre-warmed M9 medium (Diluted culture) or in a pre-warmed M9 applied with chemically synthesized EDF (2.5 ng/ml; diluted culture+EDF). For FIGS. 12A-C, samples were incubated with rifampicin as in FIG. 2A. For FIG. 13A, samples were incubated in trimethorpin (2 μg/ml) for 1 hour and for FIG. 13B samples were incubated in chlorapmphenicol (50 μg/ml) for 20 minutes.

[2] = Effect of temperature on EDF; format: physicochemical; details: supernatant incubated 10 minutes; high temperature (80° C. to 100° C.)
Method: Effect of temperature on EDF: Supernatants from the “donor” cultures described above were incubated at 37° C., 60° C., 80° C., or 100° C. for 10 minutes and cooled to 37° C. Their ability to restore mazEF-mediated cell death to a diluted culture was determined as described above.

Effect of pH on EDF = format: physicochemical; details: supernatant incubated at pH 3, 5, 7, 9 or 11 for 2 hours; extreme pH; readout: restoring mazEF-mediated cell death
Method: Effect of pH on EDF: Supernatants from the “donor” cultures described above were incubated at pH 3, 5, 7, 9 or 11 for 2 hours and titrated to PH 7. Their ability to restore mazEF-mediated cell death to a diluted culture was determined as described above.

MC4100relA^+ = experiment: EDF response of recipient culture, strain MC4100relA^+; format: cell-based, E. coli; details: rifampicin 10 μg/ml
Method: as §1

[3] = tested on: E. coli MC4100relA^+wt (WT) and MC4100relA^+ΔmazEF; experiment: Killing of E. coli cells by chemically synthesized EDF itself; format: cell-based; details: chemically synthesized EDF by itself (without antibiotic), 3 hours
Method: Killing of E. coli cells by chemically synthesized EDF itself: E. coli MC4100relA^+wt (WT) and MC4100relA^+ΔmazEF (ΔmazEF) were grown for 12 hours in M9 medium with shaking (160 rpm). Then, cells were diluted 1:100 in M9 medium and were grown with shaking (160 rpm) at 37° C. to a mid-logarithmic phase (OD600=0.6). Samples were removed from the cultures at a density of 2.5×10^8 (Dense), centrifuged in 14000 rpm for 5 minutes and washed in pre-heated M9. The samples were applied with different concentrations of EDF, incubated for 3 hours at 37° C. without shaking. Then, cells were centrifuged in 14000 rpm for 5 minutes and washed in pre-heated saline. Then, the cells were diluted, plated on LB plates and incubated at 37° C. for 12 hours. Cell killing was calculated by comparing the number of the colony-forming ability of cells treated by stressful conditions to those of the cells that were not exposed to the treatment.

[4] = tested on: E. coli MC4100relA^+wt(WT) and MC4100relA^+ΔmazEF; experiment: Killing of E. coli cells by chemically synthesized EDF in combination with other antibiotic; format: cell-based; details: diluted culture
Method: Killing of E. coli cells by chemically synthesized EDF in combination with other antibiotic: E. coli MC4100relA^+wt(WT) and MC4100relA^+ΔmazEF (ΔmazEF) were grown for 12 hours in M9 medium with shaking (160 rpm). Then, cells were diluted 1:100 in M9 medium and were grown with shaking (160 rpm) at 37° C. to a mid-logarithmic phase (OD600=0.6). Duplicate samples were removed from the cultures at a density of 2.5×10^8 (Dense), diluted in pre-heated M9 medium to the density of 3×10^4 (M9) or diluted in pre-heated M9 applied with different concentrations of EDF. The samples were incubated for 10 minutes at 37° C. without shaking Then rifampicin (10 μg/ml) was added and the cells were incubated for 10 minutes without shaking. The cells were centrifuged in 14000 rpm for 5 minutes and washed in pre-heated saline. Then, the cells were diluted, plated on LB plates and incubated at 37° C. for 12 hours. Cell killing was calculated by comparing the number of the colony-forming ability of cells treated by stressful conditions to those of the cells that were not exposed to the treatment.

[5] = EDF 1 units/ml (titrated supernatant)
[6] = EDF 10 units/ml (titrated supernatant)

Chain of proteinase K (P06873 106-384): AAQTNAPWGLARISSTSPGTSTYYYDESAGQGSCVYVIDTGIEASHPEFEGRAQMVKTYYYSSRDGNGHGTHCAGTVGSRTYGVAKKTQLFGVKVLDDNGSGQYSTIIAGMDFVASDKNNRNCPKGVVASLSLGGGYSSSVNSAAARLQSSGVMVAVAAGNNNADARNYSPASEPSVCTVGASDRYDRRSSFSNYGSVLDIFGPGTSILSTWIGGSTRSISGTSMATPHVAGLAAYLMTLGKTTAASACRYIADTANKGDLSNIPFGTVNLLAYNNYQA

Asn-Asn-Trp-Asn-Asn (NNWNN; Chemically synthesized WT EDF) [linear pentapeptide NNWNN, extracellular death factor of E. coli; purified from supernatant and chemically synthesized]
% Survival of recipient culture in response to added EDF (K-38; [5]): 17.0 ± 4.2% | % Survival of recipient culture in response to added EDF (K-38; [6]): 12.0 ± 6.6% | % Survival of recipient culture in response to added EDF (MG1655; [5]): 77.8 ± 3.4% | % Survival of recipient culture in response to added EDF (MG1655; [6]): 19.6 ± 4.5% | sensitivity of EDF to proteinase K (proteinase K): sensitive | % Survival of recipient culture in response to added EDF (W3110; [5]): 15.0 ± 3.6% | % Survival of recipient culture in response to added EDF (W3110; [6]): 14.0 ± 2.3% | % Cell killing following mazEF induction with rifampicin (E. coli MC4100relA^+): 99.5% | mazEF-mediated cell death in a diluted culture ([1]; induced by chloramphenicol 50 μg/ml, 20 minutes): enhanced mazEF-mediated cell death | mazEF-mediated cell death in a diluted culture ([1]; induced by rifampicin in different E. Coli strains (MC4100relA^+, K38, W3110)): enhanced mazEF-mediated cell death | mazEF-mediated cell death in a diluted culture ([1]; induced by trimethoprim 2 μg/ml, 1 hour): enhanced mazEF-mediated cell death | sensitivity of EDF to temperature [2]: sensitive | sensitivity of EDF to pH (Effect of pH on EDF): sensitive | % Survival of recipient culture in response to added EDF (MC4100relA^+; EDF 1 units/ml (titrated supernatant of dense MC4100relA^+ culture)): 8.0 ± 5.0% | % Survival of recipient culture in response to added EDF (MC4100relA^+; [6]): 7.0 ± 2.0% | concentrations of EDF at which cell death is mazEF-dependent [3]: 1 to 10 µg/mL | concentrations of EDF at which cell death is mazEF-independent [3]: > 10 µg/mL | concentrations of EDF at which cell death is mazEF-independent ([4]; chemically synthesized EDF in conjunction with an antibiotic (rafamycin)): over 500 ng/ml | concentrations of EDF at which cell death is mazEF-dependent ([4]; chemically synthesized EDF in conjunction with an antibiotic): 1 to 500 ng/mL
